Laboratory results from US12421232B2, “Kinase inhibitor compounds and compositions and methods of use” (ICAHN SCHOOL OF MEDICINE AT MOUNT SINAI, priority 2018, dated 2025).
Residue numbers refer to the chain shown, from its start. Where two headings read alike, the source gives them in different places.

Columns and labels:
Assay in all cases: KINOMEscan Assay (DiscoverX)
Type in all cases: binding
Conditions in all cases: read-out: % DMSO Ctrl
ADCK4 = target: T1, ADCK4 (Homo sapiens, UniProt Q96D53)
T1 construct: purchased DiscoverX
T1 sequence (Q96D53 1-544): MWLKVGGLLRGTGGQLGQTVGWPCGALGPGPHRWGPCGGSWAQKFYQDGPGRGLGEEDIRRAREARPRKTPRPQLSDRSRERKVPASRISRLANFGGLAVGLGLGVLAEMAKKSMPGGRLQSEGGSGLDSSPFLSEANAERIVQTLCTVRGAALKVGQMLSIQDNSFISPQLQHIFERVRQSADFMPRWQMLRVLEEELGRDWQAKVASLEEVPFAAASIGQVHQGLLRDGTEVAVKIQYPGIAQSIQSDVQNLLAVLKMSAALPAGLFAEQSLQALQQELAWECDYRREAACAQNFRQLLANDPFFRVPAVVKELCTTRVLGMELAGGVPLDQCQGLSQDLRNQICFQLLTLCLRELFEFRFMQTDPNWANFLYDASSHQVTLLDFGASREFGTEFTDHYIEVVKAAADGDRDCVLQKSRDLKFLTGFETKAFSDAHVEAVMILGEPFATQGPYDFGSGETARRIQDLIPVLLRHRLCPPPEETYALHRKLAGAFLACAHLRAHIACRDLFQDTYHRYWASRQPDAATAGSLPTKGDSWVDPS

FLT3 = target: T2, FLT3 (Homo sapiens, UniProt P36888)
T2 construct: purchased DiscoverX
T2 sequence (P36888 27-993): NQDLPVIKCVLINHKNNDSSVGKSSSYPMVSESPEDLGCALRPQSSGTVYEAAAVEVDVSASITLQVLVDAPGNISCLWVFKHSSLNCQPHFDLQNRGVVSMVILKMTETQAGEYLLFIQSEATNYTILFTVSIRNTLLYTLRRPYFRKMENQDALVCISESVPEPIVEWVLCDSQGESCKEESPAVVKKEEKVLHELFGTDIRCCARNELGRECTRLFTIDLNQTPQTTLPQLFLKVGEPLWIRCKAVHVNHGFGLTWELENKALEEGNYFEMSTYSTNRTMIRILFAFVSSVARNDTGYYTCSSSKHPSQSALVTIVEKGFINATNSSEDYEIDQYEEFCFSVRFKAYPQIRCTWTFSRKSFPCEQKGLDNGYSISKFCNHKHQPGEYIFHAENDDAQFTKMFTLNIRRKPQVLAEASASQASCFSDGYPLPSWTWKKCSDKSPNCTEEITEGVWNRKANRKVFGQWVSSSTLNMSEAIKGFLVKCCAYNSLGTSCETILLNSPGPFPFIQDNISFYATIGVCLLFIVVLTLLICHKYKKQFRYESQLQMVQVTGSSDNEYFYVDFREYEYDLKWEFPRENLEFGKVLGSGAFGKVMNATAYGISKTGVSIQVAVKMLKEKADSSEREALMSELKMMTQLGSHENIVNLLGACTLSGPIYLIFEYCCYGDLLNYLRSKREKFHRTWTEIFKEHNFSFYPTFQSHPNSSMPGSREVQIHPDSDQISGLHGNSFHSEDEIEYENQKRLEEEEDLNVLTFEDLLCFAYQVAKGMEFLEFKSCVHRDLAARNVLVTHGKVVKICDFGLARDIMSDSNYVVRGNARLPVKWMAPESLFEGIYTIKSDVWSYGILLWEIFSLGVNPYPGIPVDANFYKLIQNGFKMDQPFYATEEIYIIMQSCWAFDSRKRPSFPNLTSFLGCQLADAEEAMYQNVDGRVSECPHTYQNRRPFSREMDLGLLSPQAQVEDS

FLT3(N841I) = target: T3, FLT3(N841I) (Homo sapiens, UniProt P36888, N841I)
T3 construct: purchased DiscoverX
T3 sequence (P36888 27-993 N841I): T2 sequence (P36888 27-993) with N815I

PIP5K2C = target: T4, PIP5K2C (Homo sapiens, UniProt Q8TBX8)
T4 construct: purchased DiscoverX
T4 sequence (Q8TBX8 1-421): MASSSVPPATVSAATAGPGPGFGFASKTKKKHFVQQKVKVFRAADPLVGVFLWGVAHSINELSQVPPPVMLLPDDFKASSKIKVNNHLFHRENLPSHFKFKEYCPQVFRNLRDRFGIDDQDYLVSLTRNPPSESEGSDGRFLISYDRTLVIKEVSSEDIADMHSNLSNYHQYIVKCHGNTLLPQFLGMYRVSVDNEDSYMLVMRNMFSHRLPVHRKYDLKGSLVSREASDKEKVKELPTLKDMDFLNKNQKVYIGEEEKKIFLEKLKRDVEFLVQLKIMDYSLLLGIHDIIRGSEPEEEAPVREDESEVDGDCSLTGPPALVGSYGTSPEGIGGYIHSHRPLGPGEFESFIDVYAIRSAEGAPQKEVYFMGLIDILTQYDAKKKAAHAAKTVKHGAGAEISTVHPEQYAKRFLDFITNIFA

SMILES	remaining binding at 10 µM (ADCK4; ADCK4, 10 μM)	remaining binding at 10 µM (FLT3; FLT3, 10 μM)	remaining binding at 10 µM (FLT3(N841I); FLT3(N841I) mutant, 10 μM)	remaining binding at 10 µM (PIP5K2C; PIP5K2C, 10 μM)	remaining binding at 10 µM (ADCK4)	remaining binding at 10 µM (FLT3)	remaining binding at 10 µM (FLT3(N841I))	remaining binding at 10 µM (PIP5K2C)
COc1ccc2c(c1)[nH]c1c(C)nc(CO)cc12 [Compound 2-8, (1-Methyl-7-methoxy-9H-pyrido[3,4-b]indol-3-yl)methanol]	84%	100%	74%	5%				
COc1ccc2c3ccnc(C)c3n(CCCc3noc(N)n3)c2c1 [Compound 20-13, 3-(3-(7-Methoxy-1-methyl-β-carbolin-9-yl)propyl)-5-amino-1,2,4-oxadiazole]					100%	86%	78%	13%
C#CCn1c2cc(OC)ccc2c2ccnc(C)c21 [Compound 20-23a, 3-(7-Methoxy-1-methyl-β-carbolin-9-yl)-propan-1-yne]					9.3%	65%	41%	41%
